Experimental data reported in ChEMBL document CHEMBL4330132, “5-Keto-3-cyano-2,4-diaminothiophenes as selective maternal embryonic leucine zipper kinase inhibitors” (Bioorg Med Chem Lett, 2019).

Tests used:
[1] = molecular target: LIM domain kinase 2 (Homo sapiens) (UniProt P53671); assay: Binding affinity to wild-type human full length LIMK2 (M1 to P638 residues) expressed in bacterial expression system assessed as residual binding level at 1 uM by Kinomescan method relative to control
[2] = molecular target: Dual specificity mitogen-activated protein kinase kinase 7 (Homo sapiens) (UniProt O14733); assay: Binding affinity to wild-type human full length MKK7 (M1 to R419 residues) expressed in mammalian expression system assessed as residual binding level at 1 uM by Kinomescan method relative to control
[3] = molecular target: Serine/threonine-protein kinase STK11 (Homo sapiens) (UniProt Q15831); assay: Binding affinity to wild-type human full length LKB1 (M1 to Q433 residues) expressed in bacterial expression system assessed as residual binding level at 1 uM by Kinomescan method relative to control
[4] = molecular target: Mitogen-activated protein kinase kinase kinase 11 (Homo sapiens) (UniProt Q16584); assay: Binding affinity to wild-type human partial length MLK3 (I77 to W399 residues) expressed in bacterial expression system assessed as residual binding level at 1 uM by Kinomescan method relative to control
[5] = molecular target: Calcium/calmodulin-dependent protein kinase type IV (Homo sapiens) (UniProt Q16566); assay: Binding affinity to wild-type human partial length CAMK4 (A22 to A322 residues) expressed in bacterial expression system assessed as residual binding level at 1 uM by Kinomescan method relative to control
[6] = molecular target: Mitogen-activated protein kinase 9 (Homo sapiens) (UniProt P45984); assay: Binding affinity to wild-type human full length JNK2 (M1 to Q382 residues) expressed in mammalian expression system assessed as residual binding level at 1 uM by Kinomescan method relative to control
[7] = molecular target: Dual specificity mitogen-activated protein kinase kinase 5 (Homo sapiens) (UniProt Q13163); assay: Binding affinity to wild-type human partial length MEK5 (L98 to P448 residues) expressed in mammalian expression system assessed as residual binding level at 1 uM by Kinomescan method relative to control
[8] = molecular target: Homeodomain-interacting protein kinase 2 (Homo sapiens) (UniProt Q9H2X6); assay: Binding affinity to wild-type human partial length HIPK2 (M153 to S564 residues) expressed in mammalian expression system assessed as residual binding level at 1 uM by Kinomescan method relative to control
[9] = molecular target: Serine/threonine-protein kinase Nek11 (Homo sapiens) (UniProt Q8NG66); assay: Binding affinity to wild-type human partial length NEK11 (M1 to E313 residues) expressed in mammalian expression system assessed as residual binding level at 1 uM by Kinomescan method relative to control
[10] = molecular target: Serine/threonine-protein kinase BRSK1 (Homo sapiens) (UniProt Q8TDC3); assay: Binding affinity to wild-type human partial length BRSK1 (M1 to E754 residues) expressed in bacterial expression system assessed as residual binding level at 1 uM by Kinomescan method relative to control
[11] = molecular target: cGMP-dependent protein kinase 2 (Homo sapiens) (UniProt Q13237); assay: Binding affinity to wild-type human partial length PRKG2 (S422 to F762 residues) expressed in mammalian expression system assessed as residual binding level at 1 uM by Kinomescan method relative to control
[12] = molecular target: Misshapen-like kinase 1 (Homo sapiens) (UniProt Q8N4C8); assay: Binding affinity to wild-type human partial length MINK (M1 to K312 residues) expressed in mammalian expression system assessed as residual binding level at 1 uM by Kinomescan method relative to control
[13] = test system: Receptor-type tyrosine-protein kinase FLT3 (Homo sapiens), P36888 [UNDEFINED MUTATION]; assay: Binding affinity to human partial length FLT3 ITD mutant expressed in bacterial expression system assessed as residual binding level at 1 uM by Kinomescan method relative to control
[14] = test system: Epidermal growth factor receptor (Homo sapiens), P00533 [L858R]; assay: Binding affinity to human partial length EGFR L858R mutant (R669 to V1011 residues) expressed in bacterial expression system assessed as residual binding level at 1 uM by Kinomescan method relative to control
[15] = molecular target: Casein kinase II subunit alpha (Homo sapiens) (UniProt P68400); assay: Binding affinity to wild-type human full length CSNK2A1 (M1 to Q391 residues) expressed in mammalian expression system assessed as residual binding level at 1 uM by Kinomescan method relative to control
[16] = molecular target: Cyclin-dependent kinase 7 (Homo sapiens) (UniProt P50613); assay: Binding affinity to wild-type human full length CDK7 (M1 to L344 residues) expressed in mammalian expression system assessed as residual binding level at 1 uM by Kinomescan method relative to control
[17] = molecular target: Dual specificity tyrosine-phosphorylation-regulated kinase 1B (Homo sapiens) (UniProt Q9Y463); assay: Binding affinity to wild-type human full length DYRK1B (M1 to S629 residues) expressed in bacterial expression system assessed as residual binding level at 1 uM by Kinomescan method relative to control
[18] = molecular target: Cyclin-dependent kinase-like 5 (Homo sapiens) (UniProt O76039); assay: Binding affinity to wild-type human partial length CDKL5 (M1 to S337 residues) expressed in mammalian expression system assessed as residual binding level at 1 uM by Kinomescan method relative to control
[19] = molecular target: Serine/threonine-protein kinase SBK1 (Homo sapiens) (UniProt Q52WX2); assay: Binding affinity to wild-type human partial length SBK1 (P23 to P348 residues) expressed in mammalian expression system assessed as residual binding level at 1 uM by Kinomescan method relative to control
[20] = molecular target: Mitogen-activated protein kinase kinase kinase kinase 5 (Homo sapiens) (UniProt Q9Y4K4); assay: Binding affinity to wild-type human partial length MAP4K5 (M1 to P297 residues) expressed in bacterial expression system assessed as residual binding level at 1 uM by Kinomescan method relative to control
[21] = molecular target: TGF-beta receptor type-2 (Homo sapiens) (UniProt P37173); assay: Binding affinity to wild-type human partial length TGFBR2 (I218 to K567 residues) expressed in bacterial expression system assessed as residual binding level at 1 uM by Kinomescan method relative to control
[22] = molecular target: Serine/threonine-protein kinase 35 (Homo sapiens) (UniProt Q8TDR2); assay: Binding affinity to wild-type human partial length STK35 (G182 to A534 residues) expressed in bacterial expression system assessed as residual binding level at 1 uM by Kinomescan method relative to control
[23] = molecular target: Serine/threonine-protein kinase ULK3 (Homo sapiens) (UniProt Q6PHR2); assay: Binding affinity to wild-type human partial length ULK3 (M1 to Q290 residues) expressed in mammalian expression system assessed as residual binding level at 1 uM by Kinomescan method relative to control
[24] = molecular target: Cyclin-dependent kinase 17 (Homo sapiens) (UniProt Q00537); assay: Binding affinity to wild-type human full length PCTK2 (M1 to F523 residues) expressed in bacterial expression system assessed as residual binding level at 1 uM by Kinomescan method relative to control
[25] = molecular target: Wee1-like protein kinase (Homo sapiens) (UniProt P30291); assay: Binding affinity to wild-type human partial length WEE1 (M291 to K575 residues) expressed in bacterial expression system assessed as residual binding level at 1 uM by Kinomescan method relative to control

Sequence of TGF-beta receptor type-2 (Homo sapiens) (P37173 whole entry, the tested form may be a part): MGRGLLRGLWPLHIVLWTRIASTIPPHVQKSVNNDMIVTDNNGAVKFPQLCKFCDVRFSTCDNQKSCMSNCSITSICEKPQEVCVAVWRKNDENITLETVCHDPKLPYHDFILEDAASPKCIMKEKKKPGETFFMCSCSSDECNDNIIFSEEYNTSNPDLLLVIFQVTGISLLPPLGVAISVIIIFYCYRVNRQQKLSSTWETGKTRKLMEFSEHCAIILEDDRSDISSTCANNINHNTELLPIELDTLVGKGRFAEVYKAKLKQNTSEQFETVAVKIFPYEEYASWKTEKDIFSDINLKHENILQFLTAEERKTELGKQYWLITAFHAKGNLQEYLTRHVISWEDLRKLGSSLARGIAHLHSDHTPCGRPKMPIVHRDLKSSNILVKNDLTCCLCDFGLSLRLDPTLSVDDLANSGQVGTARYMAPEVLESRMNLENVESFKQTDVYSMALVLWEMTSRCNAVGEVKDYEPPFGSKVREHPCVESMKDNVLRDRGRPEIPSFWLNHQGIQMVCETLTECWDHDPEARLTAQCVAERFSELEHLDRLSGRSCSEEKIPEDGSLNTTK
Sequence of Calcium/calmodulin-dependent protein kinase type IV (Homo sapiens) (Q16566 whole entry, the tested form may be a part): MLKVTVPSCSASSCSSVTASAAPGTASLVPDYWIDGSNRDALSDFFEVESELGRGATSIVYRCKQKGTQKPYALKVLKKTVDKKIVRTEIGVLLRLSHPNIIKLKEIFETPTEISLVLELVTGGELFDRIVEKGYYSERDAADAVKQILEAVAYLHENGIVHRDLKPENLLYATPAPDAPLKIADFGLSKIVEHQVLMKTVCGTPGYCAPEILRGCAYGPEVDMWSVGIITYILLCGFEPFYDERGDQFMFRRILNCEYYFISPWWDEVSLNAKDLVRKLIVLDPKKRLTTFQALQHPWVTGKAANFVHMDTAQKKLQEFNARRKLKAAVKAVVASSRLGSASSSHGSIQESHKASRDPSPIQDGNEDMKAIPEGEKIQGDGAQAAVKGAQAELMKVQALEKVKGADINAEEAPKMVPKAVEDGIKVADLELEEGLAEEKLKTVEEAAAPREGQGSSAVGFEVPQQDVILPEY
Sequence of Serine/threonine-protein kinase SBK1 (Homo sapiens) (Q52WX2 whole entry, the tested form may be a part): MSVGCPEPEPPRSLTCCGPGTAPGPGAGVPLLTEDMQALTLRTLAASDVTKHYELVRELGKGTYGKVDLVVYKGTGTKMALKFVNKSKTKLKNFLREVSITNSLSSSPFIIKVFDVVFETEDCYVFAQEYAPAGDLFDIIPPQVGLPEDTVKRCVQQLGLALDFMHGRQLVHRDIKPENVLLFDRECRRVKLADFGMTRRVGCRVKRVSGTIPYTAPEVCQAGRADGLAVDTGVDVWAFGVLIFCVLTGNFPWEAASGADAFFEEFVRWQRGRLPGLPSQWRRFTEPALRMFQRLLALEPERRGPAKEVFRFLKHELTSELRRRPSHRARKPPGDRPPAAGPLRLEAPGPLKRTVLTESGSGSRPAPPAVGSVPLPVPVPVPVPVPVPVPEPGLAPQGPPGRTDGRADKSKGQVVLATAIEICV
Sequence of Casein kinase II subunit alpha (Homo sapiens) (P68400 whole entry, looked up, the tested form may be a part): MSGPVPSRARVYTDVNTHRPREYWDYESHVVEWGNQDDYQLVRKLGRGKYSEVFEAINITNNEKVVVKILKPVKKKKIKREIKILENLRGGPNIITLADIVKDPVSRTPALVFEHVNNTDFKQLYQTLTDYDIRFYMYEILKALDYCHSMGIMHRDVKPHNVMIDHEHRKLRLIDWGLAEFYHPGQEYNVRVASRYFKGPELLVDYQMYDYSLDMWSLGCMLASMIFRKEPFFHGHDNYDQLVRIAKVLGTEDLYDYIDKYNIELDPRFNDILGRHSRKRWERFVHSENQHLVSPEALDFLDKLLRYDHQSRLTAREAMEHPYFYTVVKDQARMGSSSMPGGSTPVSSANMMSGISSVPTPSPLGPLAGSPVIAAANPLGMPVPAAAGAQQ
Sequence of Misshapen-like kinase 1 (Homo sapiens) (Q8N4C8 whole entry, looked up, the tested form may be a part): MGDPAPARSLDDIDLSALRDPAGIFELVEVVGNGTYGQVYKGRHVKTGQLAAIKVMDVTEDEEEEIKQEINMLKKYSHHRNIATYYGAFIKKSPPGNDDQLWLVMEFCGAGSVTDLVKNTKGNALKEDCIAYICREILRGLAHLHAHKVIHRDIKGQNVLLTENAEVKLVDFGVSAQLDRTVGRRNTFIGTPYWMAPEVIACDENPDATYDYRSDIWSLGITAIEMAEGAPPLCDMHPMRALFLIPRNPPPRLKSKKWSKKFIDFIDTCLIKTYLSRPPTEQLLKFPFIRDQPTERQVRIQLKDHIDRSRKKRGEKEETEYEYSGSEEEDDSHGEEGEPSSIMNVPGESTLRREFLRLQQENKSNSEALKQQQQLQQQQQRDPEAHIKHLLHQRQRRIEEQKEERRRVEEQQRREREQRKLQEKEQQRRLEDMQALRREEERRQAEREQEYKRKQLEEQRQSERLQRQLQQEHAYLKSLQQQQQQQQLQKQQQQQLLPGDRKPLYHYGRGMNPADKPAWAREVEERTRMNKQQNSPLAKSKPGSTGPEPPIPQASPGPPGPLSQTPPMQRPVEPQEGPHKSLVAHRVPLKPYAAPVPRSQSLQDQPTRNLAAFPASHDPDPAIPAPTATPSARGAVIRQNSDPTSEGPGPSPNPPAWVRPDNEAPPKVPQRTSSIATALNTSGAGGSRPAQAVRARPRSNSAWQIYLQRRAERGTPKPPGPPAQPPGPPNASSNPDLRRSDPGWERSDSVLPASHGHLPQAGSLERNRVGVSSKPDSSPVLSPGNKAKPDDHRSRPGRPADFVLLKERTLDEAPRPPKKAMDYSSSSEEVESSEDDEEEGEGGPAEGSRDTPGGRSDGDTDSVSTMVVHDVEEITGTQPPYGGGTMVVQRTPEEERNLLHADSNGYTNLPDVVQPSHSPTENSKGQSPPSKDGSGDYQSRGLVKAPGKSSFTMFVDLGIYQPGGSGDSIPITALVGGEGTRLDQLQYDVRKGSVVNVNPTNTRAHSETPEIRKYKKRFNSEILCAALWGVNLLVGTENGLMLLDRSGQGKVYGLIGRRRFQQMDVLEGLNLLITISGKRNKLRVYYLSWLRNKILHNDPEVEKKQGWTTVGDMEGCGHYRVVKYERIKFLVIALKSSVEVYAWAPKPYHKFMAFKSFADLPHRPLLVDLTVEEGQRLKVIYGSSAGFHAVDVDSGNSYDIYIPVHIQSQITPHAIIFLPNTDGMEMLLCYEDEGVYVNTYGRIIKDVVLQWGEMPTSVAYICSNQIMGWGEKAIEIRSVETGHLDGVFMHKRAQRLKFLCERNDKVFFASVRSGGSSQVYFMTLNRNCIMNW
Sequence of Homeodomain-interacting protein kinase 2 (Homo sapiens) (Q9H2X6 whole entry, looked up, the tested form may be a part): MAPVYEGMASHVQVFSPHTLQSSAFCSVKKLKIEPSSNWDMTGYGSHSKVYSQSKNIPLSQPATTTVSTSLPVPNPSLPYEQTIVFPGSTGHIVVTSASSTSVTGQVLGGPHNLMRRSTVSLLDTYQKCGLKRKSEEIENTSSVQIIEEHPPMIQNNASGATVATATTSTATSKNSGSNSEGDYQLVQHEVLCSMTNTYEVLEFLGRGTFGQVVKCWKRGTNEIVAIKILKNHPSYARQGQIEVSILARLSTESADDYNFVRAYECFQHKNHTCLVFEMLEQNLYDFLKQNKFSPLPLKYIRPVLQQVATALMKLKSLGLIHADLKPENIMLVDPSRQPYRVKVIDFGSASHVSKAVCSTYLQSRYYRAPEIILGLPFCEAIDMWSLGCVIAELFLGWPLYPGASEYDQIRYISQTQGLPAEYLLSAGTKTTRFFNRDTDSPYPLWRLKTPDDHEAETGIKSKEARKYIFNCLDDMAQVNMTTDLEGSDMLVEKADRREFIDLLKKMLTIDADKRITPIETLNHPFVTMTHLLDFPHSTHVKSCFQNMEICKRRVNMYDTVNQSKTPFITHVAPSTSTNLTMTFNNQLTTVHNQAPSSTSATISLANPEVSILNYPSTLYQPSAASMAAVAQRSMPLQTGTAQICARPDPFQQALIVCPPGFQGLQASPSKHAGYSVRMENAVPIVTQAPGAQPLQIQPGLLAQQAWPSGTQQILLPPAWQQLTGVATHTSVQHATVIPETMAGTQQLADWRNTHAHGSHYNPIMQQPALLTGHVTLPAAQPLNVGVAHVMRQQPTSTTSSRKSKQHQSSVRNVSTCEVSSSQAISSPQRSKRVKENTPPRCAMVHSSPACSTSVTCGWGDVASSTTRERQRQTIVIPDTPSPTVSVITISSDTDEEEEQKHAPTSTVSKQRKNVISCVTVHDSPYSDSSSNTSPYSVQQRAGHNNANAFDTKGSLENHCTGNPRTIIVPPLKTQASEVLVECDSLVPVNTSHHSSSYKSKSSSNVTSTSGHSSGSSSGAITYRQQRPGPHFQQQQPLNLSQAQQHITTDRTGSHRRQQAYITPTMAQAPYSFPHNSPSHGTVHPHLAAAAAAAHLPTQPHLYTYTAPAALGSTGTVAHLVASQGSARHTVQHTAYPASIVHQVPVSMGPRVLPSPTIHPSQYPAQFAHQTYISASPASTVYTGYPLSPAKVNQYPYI
Sequence of Serine/threonine-protein kinase STK11 (Homo sapiens) (Q15831 whole entry, the tested form may be a part): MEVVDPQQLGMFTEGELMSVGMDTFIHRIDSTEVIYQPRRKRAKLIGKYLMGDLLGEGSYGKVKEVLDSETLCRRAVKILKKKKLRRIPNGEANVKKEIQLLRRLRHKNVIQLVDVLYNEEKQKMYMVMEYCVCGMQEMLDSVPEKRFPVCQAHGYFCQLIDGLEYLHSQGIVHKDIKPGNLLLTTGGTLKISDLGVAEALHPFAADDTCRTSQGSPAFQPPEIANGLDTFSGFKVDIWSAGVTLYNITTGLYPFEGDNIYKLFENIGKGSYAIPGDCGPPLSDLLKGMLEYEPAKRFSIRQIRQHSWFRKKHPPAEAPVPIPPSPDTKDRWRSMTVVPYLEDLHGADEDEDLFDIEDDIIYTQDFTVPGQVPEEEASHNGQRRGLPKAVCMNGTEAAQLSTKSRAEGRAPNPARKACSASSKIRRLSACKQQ

## CC(C)Nc1sc(C(=O)c2ccc(Cl)s2)c(N)c1C#N
[1]
  Activity: 100%
[2]
  Activity: 100%
[3]
  Activity: 89%
[4]
  Activity: 100%
[5]
  Activity: 100%
[6]
  Activity: 100%
[7]
  Activity: 100%
[8]
  Activity: 94%
[9]
  Activity: 97%
[10]
  Activity: 92%
[11]
  Activity: 100%
[12]
  Activity: 55%
[13]
  Activity: 77%
[14]
  Activity: 95%
[15]
  Activity: 100%
[16]
  Activity: 100%
[17]
  Activity: 64%
[18]
  Activity: 100%
[19]
  Activity: 100%
[20]
  Activity: 78%
[21]
  Activity: 100%
[22]
  Activity: 80%
[23]
  Activity: 99%
[24]
  Activity: 87%
[25]
  Activity: 94%
